Laboratory results taken from the supplement of paper PMC10307832.

These cell lines were tested with CC1CC(=O)N(C2=CN=C(N=C2N1C3CCCC3)NC4=C(C=C(C=C4)C(=O)NC5CCN(CC5)C)OC)C [NPK76-II-72-1] + N=C(N)NC(=N)NCCc1ccccc1 [Phenformin] (partner 250 µM) (assay: relative viability (nuclei count vs DMSO), 5 days (fraction); higher = more cells survive). Conditions: first compound 1 µM.
In short: (§1)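 Lung cancer cell lines in 1536-well plates got either a single drug or a fixed anchor-drug dose together with five library-drug doses (not always all listed) in √10 steps, by pin tool, on the day after seeding. Nuclei were counted after 5 days, and relative viability is the treated-to-vehicle ratio of nuclei counts. Values are medians of duplicate plates.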

Cell Line | relative viability
COR-L23 | 0.438
COR-L 105 | 0.551
LOU-NH91 | 0.884
ChaGo-K-1 | 0.478
NCI-H2170 | 0.461
A549 | 0.192
NCI-H1563 | 0.697

What follows are cell lines tested with CC1CC(=O)N(C2=CN=C(N=C2N1C3CCCC3)NC4=C(C=C(C=C4)C(=O)NC5CCN(CC5)C)OC)C [NPK76-II-72-1] + CC(=O)c1c(C)c2cnc(Nc3ccc(N4CCNCC4)cn3)nc2n(C2CCCC2)c1=O [Palbociclib] (partner 0.5 µM) in the same assay as above. Conditions: first compound 0.01 µM.
In short: as §1

Cell Line | relative viability
NCI-H522 | 0.866
NCI-H727 | 0.705
NCI-H1650 | 0.314
NCI-H1993 | 0.629
SW 1573 | 0.35
NCI-H838 | 0.209
NCI-H520 | 0.235
NCI-H2126 | 0.338
EMC-BAC-2 | 0.54
NCI-H2085 | 0.475
HCC-366 | 0.386
NCI-H1666 | 0.64
LK-2 | 0.624
NCI-H2087 | 0.236
NCI-H2342 | 0.487
SK-MES-1 | 0.325
H3255 | 0.351
COR-L23 | 0.264
COR-L 105 | 0.389
LOU-NH91 | 0.538
ChaGo-K-1 | 0.871
NCI-H2170 | 0.395
NCI-H1648 | 0.23

Same assay, conditions: first compound 0.03162 µM

Cell Line | relative viability
NCI-H522 | 1.02
NCI-H727 | 0.671
NCI-H1650 | 0.428
NCI-H1993 | 0.647
SW 1573 | 0.486
NCI-H838 | 0.2
LCLC-103H | 0.501
NCI-H520 | 0.24
NCI-H2126 | 0.348
EMC-BAC-2 | 0.561
NCI-H2085 | 0.445
HCC-366 | 0.438
NCI-H1666 | 0.62
LK-2 | 0.636
NCI-H2087 | 0.255
NCI-H2342 | 0.468
SK-MES-1 | 0.342
H3255 | 0.319
COR-L23 | 0.304
COR-L 105 | 0.417
LOU-NH91 | 0.52
ChaGo-K-1 | 0.891
NCI-H2170 | 0.358
NCI-H1648 | 0.269

Same assay, conditions: first compound 0.1 µM

Cell Line | relative viability
NCI-H522 | 0.981
NCI-H727 | 0.594
NCI-H1650 | 0.458
NCI-H1993 | 0.616
SW 1573 | 0.399
NCI-H838 | 0.217
LCLC-103H | 0.501
NCI-H520 | 0.267
NCI-H2126 | 0.331
EMC-BAC-2 | 0.476
NCI-H2085 | 0.464
HCC-366 | 0.386
NCI-H1666 | 0.652
LK-2 | 0.668
NCI-H2087 | 0.242
NCI-H2342 | 0.47
SK-MES-1 | 0.26
H3255 | 0.305
COR-L23 | 0.314
COR-L 105 | 0.379
LOU-NH91 | 0.496
ChaGo-K-1 | 0.892
NCI-H2170 | 0.435
NCI-H1648 | 0.24

Same assay, conditions: first compound 0.3162 µM

Cell Line | relative viability
NCI-H727 | 0.621
NCI-H1650 | 0.31
NCI-H1993 | 0.563
SW 1573 | 0.371
NCI-H838 | 0.228
LCLC-103H | 0.565
NCI-H520 | 0.26
NCI-H2126 | 0.347
EMC-BAC-2 | 0.516
NCI-H2085 | 0.489
HCC-366 | 0.363
NCI-H1666 | 0.6
LK-2 | 0.653
NCI-H2087 | 0.22
NCI-H2342 | 0.508
SK-MES-1 | 0.313
H3255 | 0.3
COR-L23 | 0.29
COR-L 105 | 0.439
LOU-NH91 | 0.52
ChaGo-K-1 | 0.925
NCI-H2170 | 0.285
NCI-H1648 | 0.266

Same assay, conditions: first compound 1 µM

Cell Line | relative viability
NCI-H522 | 1.1
NCI-H727 | 0.712
NCI-H1650 | 0.407
NCI-H1993 | 0.682
SW 1573 | 0.387
NCI-H838 | 0.228
LCLC-103H | 0.484
NCI-H520 | 0.247
NCI-H2126 | 0.345
EMC-BAC-2 | 0.538
NCI-H2085 | 0.491
HCC-366 | 0.458
NCI-H1666 | 0.67
LK-2 | 0.565
NCI-H2087 | 0.254
NCI-H2342 | 0.541
SK-MES-1 | 0.385
H3255 | 0.304
COR-L23 | 0.342
COR-L 105 | 0.469
LOU-NH91 | 0.528
ChaGo-K-1 | 0.945
NCI-H2170 | 0.415
NCI-H1648 | 0.279

What follows are cell lines tested with CC[C@@H]1C(=O)N(C)c2cnc(Nc3ccc(C(=O)NC4CCN(C)CC4)cc3OC)nc2N1C1CCCC1 [BI-2536] + N=C(N)NC(=N)NCCc1ccccc1 [Phenformin] (partner 250 µM) in the same assay as above. Conditions: first compound 0.01 µM.
In short: as §1

Cell Line | relative viability
NCI-H522 | 0.525
NCI-H1623 | 0.564
NCI-H727 | 0.529
NCI-H1650 | 0.425
NCI-H1993 | 0.493
